The values that follow come from patent publication US9040248B2, “Kits for detecting and monitoring endocrine disrupting chemicals (EDCs)” (The United States of America, as represented by the …, priority 2012, dated 2015).

Entries after “also recorded” stand apart in the source; their conditions may differ.

Test [1] concerns the target T1, GFP-GR (GFP-tagged glucocorticoid receptor) (Rattus norvegicus, UniProt P06536, C656G/D98G).
T1 construct: expressed in transfected cells; host or cells: 3617 cells (derivative of the 3134 mouse mammary adenocarcinoma line), tetracycline-repressible promoter
Put plainly: GFP-GR cytoplasm-to-nucleus translocation assay in 3617 cells. The class given is cell-based. The conditions noted are these: 30 min treatment; water samples 100×. How it is done:
(§1) For biological testing, samples prepared as above were reconstituted in DMSO and diluted in growth media to a final 1,000× concentration from the original water volume while maintaining DMSO at <0.2%. Samples were added to cells for 30 minutes at 100× concentration or as indicated in the text.
Prior to imaging, cells were grown overnight on 22-mm^2 coverslips in DMEM medium containing 10% charcoal stripped serum (Hyclone, Logan, Utah) without tetracycline (to allow the expression of the GFP-GR or GFP-AR, respectively) at a density of 2×10^5 per 6-well plate. For the automated experiments conducted in 96 or 384 well plates, cell density was 10,000 or 2,500 cells per well, respectively. Cells were treated with vehicle control, hormones (100 nM) or water samples for 30 min at 37° C. at a final concentration of 100× for water samples (unless otherwise specified). Additional negative controls contained samples that tested the activity of the POCIS membranes themselves.
Upon treatment, cells were fixed with 4% paraformaldehyde in PBS for 15 minutes and washed three times with PBS. Cells on the 22-mm^2 coverslips were mounted in […]® mounting media with DAPI (Vector Laboratories, Inc.) and examined on a Leica DMRA microscope with Leica 100×1.3-N.A. oil immersion objective. Images were acquired in green (GFP-GR and GFP-AR) and UV (DAPI) channel with SenSys (Photometrics) camera with KAF1400 chip configured to collect 0.067-μm-diameter pixels. […]
(§2) A Perkin Elmer Opera Image Screening System was used for fully automated collection of fluorescence images of cells. This system employed a 40× water immersion objective lens, laser illuminated Nipkow disk, and cooled CCD cameras to digitally capture high resolution confocal fluorescence micrographs (300 nm pixel size with 2×2 camera pixel binning). […] The algorithm also measured the mean GFP-GR or GFP-AR intensity in both compartments, and translocation was calculated as a ratio of these intensities. […]

In test [2] the target is T2, GFP-AR (GFP-tagged androgen receptor, eGFP-hAR) (Homo sapiens, UniProt P10275).
T2 construct: expressed in transfected cells; host or cells: 3108 cells (derivative of the 3134 mouse mammary adenocarcinoma line), tetracycline-repressible promoter
Put plainly: GFP-AR cytoplasm-to-nucleus translocation assay in 3108 cells. It is filed as cell-based. The conditions noted are these: 30 min treatment, hormones 100 nM or known concentrations, water samples 100×. The method, then: as §1
Prior to imaging, cells were grown overnight on 22-mm^2 coverslips in DMEM medium containing 10% charcoal stripped serum (Hyclone, Logan, Utah) without tetracycline (to allow the expression of the GFP-GR or GFP-AR, respectively) at a density of 2×10^5 per 6-well plate. For the automated experiments conducted in 96 or 384 well plates, cell density was 10,000 or 2,500 cells per well, respectively. Cells were treated with vehicle control, hormones (100 nM) or water samples for 30 min at 37° C. at a final concentration of 100× for water samples (unless otherwise specified). […]
as §2

Take `CCNc1nc(Cl)nc(NC(C)C)n1` [atrazine]: the “GFP-GR nuclear translocation (in words)” value in test [1] is recorded as “did not induce GFP-GR translocation”.
Take `C[C@]12C[C@H](O)[C@H]3[C@@H](CCC4=CC(=O)CC[C@@]43C)[C@@H]1CC[C@@H]2C(=O)CO` [corticosterone]: in test [1], the “GFP-GR nuclear translocation (in words)” value is “translocates to the nucleus in a concentration-dependent manner”.
Consider `C[C@@]12CCC[C@H]1[C@@H]1CC(=O)C3=CC(=O)CC[C@]3(C)[C@H]1CC2` (single isomer, unassigned) [Androst-4-en-3,6-dione], for which, in test [1], the “GFP-GR nuclear translocation (in words)” value is reported as “did not induce GFP-GR translocation”. Besides, the “GFP-AR nuclear translocation (in words)” value in test [2] is on record as “induced GFP-tagged androgen receptor (GFP-AR) translocation”; in test [2] (listed as androst-4-en-3,6-dione), “translocated to the nucleus in concentration-dependent manner; also recorded: induces concentration-dependent translocation”.
